Assays:
Type in all cases: cell-based, mouse
BMDMs [1] = test: Flow cytometry, CellROX and TMRM staining; conditions: BMDMs pre-treated, LPS 4 h; oligomycin 10 μM, CCCP 50 μM, valinomycin 10 nM, MMF 50 or 100 μM
Method: (§1) All compounds used DMSO as a vehicle except for 4-hydroxy tamoxifen (EtOH), NAC (PBS), and AOAA for tracing experiments (Media). LPS was used at a concentration of 100 ng/ml for indicated timepoints (2, 3, 4, 6, 8, 24, 48 h). FHIN1 (10 or 20 μM), MMF (50 or 100 μM), DMF (25 μM), AOAA (5 mM), oligomycin (10 μM), CCCP (50 μM) NAC (1 mM), and IMT1 (10 μM) pre-treatments were performed for 3 h prior the addition of LPS. Cells were treated with valinomycin (10 nM) 15 mins before LPS stimulation. Anti-CD210 or IgG control (10 μg/ml) antibodies were added to cells 1 h prior to LPS stimulation. Recombinant mouse IL-10 protein (100 ng/ml) was added to cells at the same time as LPS. Cells were treated with IFN-B1 (220 ng/ml) for 3 h. Cells were treated with C-178 (1 μM) 1 h prior to LPS stimulation or transfection with 2′3′-cGAMP (1.5 μg/ml) for 4 hrs to achieve cGAS-STING activation. Cells were treated with ODN 2088 (1 μM) for 1 hr prior to LPS stimulation or transfection with CPG ODN 1826 (1.5 μg/ml) to achieve TLR9 activation. 3 different timepoints of 4-hydroxy tamoxifen (TAM) (600 nM or 2 μM) or EtOH treatment were performed-these are specified in the individual figure legends. For ‘48 h’ treatments EtOH/TAM was added on day 5 of 6 during the BMDM differentiation protocol. On day 6 they were plated with EtOH/TAM (left overnight) and treated the following day. For ‘72 h’ treatments EtOH/TAM was added on day […] of 6 during the BMDM differentiation protocol. On day 6 they were plated with EtOH/TAM (left overnight) and treated the following day. For ‘96 h’ treatments EtOH/TAM was added on day […] of 6 during the BMDM differentiation protocol. On day 6 they were plated with EtOH/TAM and treated 2 days later.
Cells were plated in 12-well plates and treated as desired. CellROX Green (5 μM, Thermo Fisher) or TMRM (20 nM, Thermo Fisher) was added to cells 30 mins prior to end of cell treatments. Cells were washed once in PBS and scraped into 200 μl FACS buffer (2 mM EDTA, 0.5% FCS in PBS). Acquisition of samples was performed on a BD Accuri C6 flow cytometer. The gating strategy used for all flow cytometry experiments consisted of debris exclusion by FSC-A vs SSC-A analysis and subsequent doublet exclusion by FSC-A vs FSC-H analysis. A sample gating strategy is provided in Supplementary FIG. 2. 10,000 cells was acquired per condition. Mean fluorescence intensity (MFI) was calculated for all cells in each condition using FlowJo v10.

BMDMs [2] = test: ELISA of cytokine release from BMDMs; conditions: LPS 4 h; for LPS-induced IFN-β release: BMDMs pre-treated
Method: as §1
(§2) Pre-designed silencer select siRNAs for Cgas (s103166), Tmem173 (s91058), Tlr3 (s100579), Tlr9 (s96268), As/(s99640), Tlr7 (s100720), Ddx58 (s106376), Ifih1 (s89787), Nrf2 (s70522), Atf4 (s62689) and negative control (4390843) were ordered from Thermo Fisher. siRNA sequences are given in Table S2. Cells were transfected with 50 nM siRNA using 5 μl lipofectamine RNAiMAX according to manufacturer's instructions (Thermo Fisher). Cells were transfected in medium without serum and antibiotics which was replaced with complete medium 8 hours later. Cells were subsequently left for at least a further 12 hours prior to treatment.
BMDMs were plated in the presence or absence of ultrapure ethidium bromide (100 ng/ml) and incubated for a further 6 days prior to treatment. Depletion of mtDNA was determined by genomic DNA isolation followed by qPCR using primers specific for areas of mitochondrial DNA (D-loop) and areas of mtDNA that are not inserted into nuclear DNA (Non-NUMT).
DuoSet ELISA kits for IL-1β, TNFα, IL-6, IL-10, and GDF15 were purchased from R&D Systems and were carried out according to the manufacturer's instructions with appropriately diluted cell supernatants added to each plate in duplicate or triplicate. IFN-β was determined using DuoSet ELISA kit from R&D Systems or Abcam (ab252363). Quantikine ELISA kit for IFN-β (R&D Systems) was used for determination of IFN-β concentration in serum samples and from human cells, and these were also carried out according to the manufacturer's instructions. Absorbance at 450 nm was quantified using a FLUOstar Optima plate reader. Corrected absorbance values were calculated by subtracting the background absorbance, and cytokine concentrations were subsequently obtained by extrapolation from a standard curve plotted on GraphPad Prism 9.2.0.

BMDMs [3] = test: Digitonin fractionation, qPCR of mtDNA and mtRNA
Method: as §1
BMDMs were plated at 0.5×10^6 cells/well and treated as desired. After treatment, cells were washed once with room temperature PBS, before being scraped on ice into ice cold PBS and pelleted at 500×g for 5 mins at 4° C. Supernatant was removed and discarded, and the pellet was resuspended in 400 μl extraction buffer (150 mM NaCl, 50 mM HEPES pH 7.4, 25 μg/ml digitonin). Samples were then placed in a rotating mixer at 4° C. for 10 mins before centrifugation at 2000×g at 4° C. for 5 mins. The resulting supernatant constituted the cytosolic fraction, from which RNA and DNA were isolated using an AllPrep DNA/RNA Mini Kit (Qiagen). Alternatively, the cytosolic fraction was concentrated using Strataclean Resin (Agilent) and analysed by western blot. The pellet constituted a fraction containing membrane-bound organelles which was lysed in RNA lysis buffer for RNA isolation or lysed in western blot lysis buffer for analysis by western blot. To determine the presence of mtRNA and mtDNA in the cytosol, qPCR was performed using primers specific for mitochondrial D-loop on cDNA which had been reverse-transcribed from RNA isolated from the cytosolic fraction (mtRNA) and on DNA isolated from the cytosolic fraction (mtDNA). In both cases, values were normalised using a housekeeping control gene (β-actin) amplified in cDNA which had been reverse-transcribed from RNA isolated from the membrane-bound fraction.

BMDMs [4] = test: RT-qPCR gene expression in BMDMs
Method: as §1
RNA extraction from cells was carried out using a Purelink™ RNA kit (Invitrogen) according to the manufacturer's instructions. BMDMs were treated as required, and following treatment were instantly lysed in 350 μl RNA lysis buffer. Isolated RNA was quantified using a NanoDrop 2000 spectrophotometer, and RNA concentration was normalised to the lowest concentration across all samples with RNAse-free water. If necessary, samples were DNAse-treated after quantification using DNAse I (Thermo Fisher) according to the manufacturer's instructions. Isolated RNA samples were normalised and converted into cDNA using the High-Capacity cDNA Reverse Transcription Kit (Thermo Fisher) according to manufacturer's instructions. 10 μl of RNA (at a maximum concentration of 100 ng/μl) was added to 10 μl of reverse transcription master mix to complete the reaction mixture. Real-time quantitative PCR was performed on the cDNA generated in the previous step, using primers designed in-house and ordered from Eurofins Genomics, as detailed in Table S2. The reaction was performed in a 96-well qPCR plate by a 7500 Fast Real-Time PCR machine (Thermo Fisher). Relative expression (2^−ΔΔCT) was calculated from the CT values for each sample and gene of interest.
as §2

BMDMs [5] = test: Immunofluorescence, Mitotracker Red and dsRNA; conditions: BMDMs pre-treated, relative to DMSO control, LPS 4 h
Method: as §1
Cells were plated on 20 mm cover slips in 12-well plates. Cells were treated as required and Mitotracker Red CMXRos (100 nM, Thermo Fisher), was added to medium 30 mins prior to end of cell treatments. After 30 min incubation, cells were washed three times with warm PBS. Cells were subsequently fixed for 10 mins with 4% paraformaldehyde/PBS at 37° C. Cells were washed three times with PBS and permeabilized for 1 hour in block solution (1% BSA, 22.52 mg/ml glycine, 0.1% tween 20 in PBS). Anti-dsRNA antibody (Merck) was diluted 1/60 in block solution and incubated with cells overnight at room temperature. Cells were washed three times with PBS for 5 mins/wash. […] Images were analysed using the LAS X Life Science Microscope Software Platform (Leica). The same microscope instrument settings were used for all samples and all images were analysed using the same settings. […] Quantification of dsRNA or Mitotracker Red CMXRos signal intensity was performed using the measure function in ImageJ 1.53t (NIH).

N#CC(C#N)=NNc1cccc(Cl)c1 [CCCP]
mitochondrial membrane potential (MMP), TMRM staining (BMDMs [1]): significantly dissipated
LPS-induced IFN-β release (BMDMs [2]): boosted

Cc1ccccc1-c1cc(=O)oc2cc(OC(C)C(=O)N(C)C)ccc12 (centres unmarked) [IMT1]
effect on the increase in mtRNA with FHIN1 (cytosolic and whole cell fraction) (BMDMs [3]; BMDMs co-treated with FHIN1 and IMT1 10 μM, LPS 4 h): inhibited in both
effect on the FHIN1-mediated boost in IFN-β release (BMDMs [2]; BMDMs co-treated with FHIN1 and IMT1 10 μM): abrogated

CC(=O)N[C@@H](CS)C(=O)O [NAC, N-acetyl cysteine]
suppression of Il10 by FHIN1 and DMF (BMDMs [4]; BMDMs, NAC 1 mM together with FHIN1 or DMF, LPS 4 h): abrogated

CC[C@H]1/C=C/C=C/C[C@@H](C)[C@H](O)[C@@](C)(O)C(=O)[C@@H](C)[C@H](O)[C@@H](C)C(=O)[C@@H](C)[C@H](O)[C@@H](C)/C=C/C(=O)O[C@@H]2[C@H](C)[C@H](CC1)O[C@]1(CC[C@H](C)[C@H](C[C@@H](C)O)O1)[C@H]2C [oligomycin A, Oligomycin A]
mtDNA in cytosolic extracts (D-loop) (BMDMs [3]; digitonin-fractionated BMDMs): increase
mtRNA in cytosolic extracts (BMDMs [3]; digitonin-fractionated BMDMs): increased
dsRNA accumulation (immunofluorescence) (BMDMs [5]): accumulation of dsRNA to a similar extent to that observed in cells treated with FHIN1
mitochondrial membrane potential (MMP), TMRM staining (BMDMs [1]): boosted
LPS-induced IFN-β release (BMDMs [2]): boosted

CC(C)[C@@H]1NC(=O)[C@H](C)OC(=O)[C@@H](C(C)C)NC(=O)[C@@H](C(C)C)OC(=O)[C@H](C(C)C)NC(=O)[C@H](C)OC(=O)[C@@H](C(C)C)NC(=O)[C@@H](C(C)C)OC(=O)[C@H](C(C)C)NC(=O)[C@H](C)OC(=O)[C@@H](C(C)C)NC(=O)[C@@H](C(C)C)OC1=O [valinomycin A, valinomycin]
dsRNA accumulation (immunofluorescence) (BMDMs [5]): similarly drove dsRNA accumulation
mitochondrial membrane potential (MMP), TMRM staining (BMDMs [1]): non-significantly reduced
LPS-induced IFN-β release (BMDMs [2]): boosted

B1: IFN-β: recombinant mouse IFN-β1 used to stimulate BMDMs (protein, UniProt P01575 22-182, looked up)
Interferon beta: INYKQLQLQERTNIRKCQELLEQLNGKINLTYRADFKIPMEMTEKMQKSYTAFAIQEMLQNVFLVFRNNFSSTGWNETIVVRLLDELHQQTVFLKTVLEEKQEERLTWEMSSTALHLKSYYWRVQRYLKLMKYNSYAWMVVRAEIFRNFLIIRRLTRNFQN
Fh1 expression (BMDMs [4]; IFN-β-stimulated BMDMs (220 ng/ml, 3 h)): inhibited

Source: patent US20250018019A1, “TREATMENT OF INTERFERON DRIVEN INFLAMMATION” (The Provost, Fellows, Foundation Scholars and the other …, priority 2023, published 2025)
